# Reference: patent US11638427B2, “Methods and compositions for altering secondary metabolites in plants” (Impello Biosciences, Inc, priority 2020, dated 2023)
# Values joined by “and” are separate entries in the source; they are usually repeats but may differ in a detail not shown here. Identical values can stand only once.
# Tested on: CBDRx Cherry hemp clones
# Test: Foliar spray of MS, MDJ and MS+MDJ on hemp clones: biomass, cannabinoid and terpene analysis
# Format: in vivo, Cannabis spp.
# Design: CBDA / CBD / THCA / Total CBG / Total cannabinoids: unit not given here
# Settings: for plants died before the end of the experiment: four plants per treatment group
# Protocol: Methyl salicylate (MS) is an antagonistic compound to the jasmonates. To investigate the effect of MS alone and in conjunction with MDJ, MS (CAS No.: 119-36-8), MDJ, and the combination (MS+MDJ) were applied by foliar spray to CBDRx Cherry hemp clones once per week during both vegetative and flowering phases. Plants were transplanted into 1-gallon pots with Red's soil and put into vegetative light cycle (18L/6D). […] Plants were grown under a total of 12 Boost (Thrive Agritech, NY) 130-watt LED lights set to 18L: 6D photoperiod during the vegetative phase (2 weeks) and this was followed by a 12L: 12D photoperiod during the flowering phase (7 weeks), using the same lighting fixtures. Throughout the nine weeks, all plants were watered when needed with Jack's nutrients.
# MS or MDJ treatments were applied at the following concentrations: [1 mM], [4.25 mM], [7.5 mM] and [10 mM]. Each concentration was prepared from a one molar stock solution diluted with RO water and TWEEN®-20 (1M stock) was added. Each plant was sprayed till dripping, which was approximately 50-75 ml. To apply the combination of the two biochemicals, MS and MDJ were sprayed separately but simultaneously, to ensure each compound was applied evenly onto the plant. Each compound was applied using a SPRAYMASTER Chemical Sprayer (King of Prussia, Pa.).
# Plants were harvested two months after transplant. After harvesting, plants were air dried at room temperature for two weeks. Once plants were sufficiently dry, above ground dry weights were recorded and dried flower samples were collected and sent to a third-party lab for terpene and cannabinoid analysis. Two plants (#3 and #4) in treatment group MDJ [7.5] mM, two plants (#3 and #4) in MS [4.25] mM, one plant (#4) in MS [7.5], and one plant (#4) in MDJ [10] died before the end of the experiment.
# [1] = 1 mM foliar spray, Avg. of group
# [2] = 1 mM foliar spray, individual plant
# [3] = 4.25 mM foliar spray, Avg. of group
# [4] = 4.25 mM foliar spray, individual plant
# [5] = 7.5 mM foliar spray, Avg. of group
# [6] = 7.5 mM foliar spray, individual plant
# [7] = 10 mM foliar spray, Avg. of group
# [8] = 10 mM foliar spray, individual plant
compound,measurement,setting,value
"COC(=O)c1ccccc1O [MS, Methyl salicylate]",Alpha-bisabolol,[1],0.08263 % wt/wt
same,Alpha-humulene,[1],0.07955 % wt/wt
same,Beta-caryophyllene,[1],0.2069 % wt/wt
same,CBCA,[1],0.715
same,CBD,[1],0.105
same,CBDA,[1],13.675
same,CBGA,[1],0.365
same,Limonene,[1],0.1101 % wt/wt
same,THCA,[1],0.6
same,Total CBD,[1],12.1025
same,Total CBG,[1],0.32
same,Total cannabinoids,[1],15.46
same,Total d9THC,[1],0.525
same,alpha-pinene,[1],0 % wt/wt
same,beta-myrcene,[1],0.8188 % wt/wt
same,beta-pinene,[1],0.02077 % wt/wt
same,total terpenes,[1],1.435 % wt/wt
same,Alpha-bisabolol,[2],0.0925 % wt/wt and 0.1053 % wt/wt and 0.1236 % wt/wt and 0.00912 % wt/wt
same,Alpha-humulene,[2],0.076 % wt/wt and 0.0724 % wt/wt and 0.0922 % wt/wt and 0.0776 % wt/wt
same,Beta-caryophyllene,[2],0.1974 % wt/wt and 0.1911 % wt/wt and 0.243 % wt/wt and 0.1959 % wt/wt
same,CBCA,[2],0.82 and 0.64 and 0.67 and 0.73
same,CBD,[2],0.13 and 0 and 0.12 and 0.17
same,CBDA,[2],15.19 and 12.85 and 13.24 and 13.42
same,CBGA,[2],0.42 and 0.34 and 0.32 and 0.38
same,Limonene,[2],0.1096 % wt/wt and 0.11 % wt/wt and 0.1101 % wt/wt and 0.1106 % wt/wt
same,THCA,[2],0.66 and 0.56 and 0.58 and 0.6
same,Total CBD,[2],13.45 and 11.27 and 11.74 and 11.95
same,Total CBG,[2],0.37 and 0.3 and 0.28 and 0.33
same,Total cannabinoids,[2],17.22 and 14.39 and 14.93 and 15.3
same,Total d9THC,[2],0.58 and 0.49 and 0.51 and 0.52
same,alpha-pinene,[2],0 % wt/wt
same,beta-myrcene,[2],0.7692 % wt/wt and 0.8926 % wt/wt and 0.845 % wt/wt and 0.7684 % wt/wt
same,beta-pinene,[2],0.0215 % wt/wt and 0.0201 % wt/wt and 0.021 % wt/wt and 0.0205 % wt/wt
same,total terpenes,[2],1.36 % wt/wt (2×) and 1.48 % wt/wt and 1.54 % wt/wt
same,Alpha-bisabolol,[3],0.1143 % wt/wt
same,Alpha-humulene,[3],0.0794 % wt/wt
same,Beta-caryophyllene,[3],0.1996 % wt/wt
same,CBCA,[3],0.61
same,CBD,[3],0.16
same,CBDA,[3],11.8
same,CBGA,[3],0.275
same,Limonene,[3],0.1 % wt/wt
same,THCA,[3],0.51
same,Total CBD,[3],10.505
same,Total CBG,[3],0.24
same,Total cannabinoids,[3],13.355
same,Total d9THC,[3],0.45
same,alpha-pinene,[3],0 % wt/wt
same,beta-myrcene,[3],0.7751 % wt/wt
same,beta-pinene,[3],0.0197 % wt/wt
same,total terpenes,[3],1.38 % wt/wt
same,plants died before the end of the experiment,4.25 mM foliar spray,two plants
same,Alpha-bisabolol,[4],0.1185 % wt/wt and 0.1101 % wt/wt
same,Alpha-humulene,[4],0.0819 % wt/wt and 0.0769 % wt/wt
same,Beta-caryophyllene,[4],0.2091 % wt/wt and 0.19 % wt/wt
same,CBCA,[4],0.61
same,CBD,[4],0.15 and 0.17
same,CBDA,[4],11.88 and 11.72
same,CBGA,[4],0.27 and 0.28
same,Limonene,[4],0.1042 % wt/wt and 0.0958 % wt/wt
same,THCA,[4],0.52 and 0.5
same,Total CBD,[4],10.57 and 10.44
same,Total CBG,[4],0.24
same,Total cannabinoids,[4],13.43 and 13.28
same,Total d9THC,[4],0.46 and 0.44
same,alpha-pinene,[4],0 % wt/wt
same,beta-myrcene,[4],0.8061 % wt/wt and 0.744 % wt/wt
same,beta-pinene,[4],0.0209 % wt/wt and 0.0185 % wt/wt
same,total terpenes,[4],1.43 % wt/wt and 1.33 % wt/wt
same,Alpha-bisabolol,[5],0.1235 % wt/wt
same,Alpha-humulene,[5],0.09093 % wt/wt
same,Beta-caryophyllene,[5],0.23 % wt/wt
same,CBCA,[5],0.66
same,CBD,[5],0.1833
same,CBDA,[5],12.833
same,CBGA,[5],0.41
same,Limonene,[5],0.09533 % wt/wt
same,THCA,[5],0.57
same,Total CBD,[5],11.44
same,Total CBG,[5],0.356
same,Total cannabinoids,[5],14.656
same,Total d9THC,[5],0.5
same,alpha-pinene,[5],0 % wt/wt
same,beta-myrcene,[5],0.7014 % wt/wt
same,beta-pinene,[5],0 % wt/wt
same,total terpenes,[5],1.343 % wt/wt
same,plants died before the end of the experiment,7.5 mM foliar spray,one plant
same,Alpha-bisabolol,[6],0.1154 % wt/wt and 0.1201 % wt/wt and 0.1349 % wt/wt
same,Alpha-humulene,[6],0.0878 % wt/wt and 0.083 % wt/wt and 0.102 % wt/wt
same,Beta-caryophyllene,[6],0.2204 % wt/wt and 0.2101 % wt/wt and 0.2595 % wt/wt
same,CBCA,[6],0.68 (2×) and 0.62
same,CBD,[6],0.3 and 0.1 and 0.15
same,CBDA,[6],12.97 and 12.23 and 13.3
same,CBGA,[6],0.4 and 0.37 and 0.46
same,Limonene,[6],0.0902 % wt/wt and 0.0968 % wt/wt and 0.099 % wt/wt
same,THCA,[6],0.57 and 0.55 and 0.59
same,Total CBD,[6],11.68 and 10.83 and 11.81
same,Total CBG,[6],0.35 and 0.32 and 0.4
same,Total cannabinoids,[6],14.92 and 13.87 and 15.18
same,Total d9THC,[6],0.5 and 0.48 and 0.52
same,alpha-pinene,[6],0 % wt/wt
same,beta-myrcene,[6],0.6564 % wt/wt and 0.7151 % wt/wt and 0.7328 % wt/wt
same,beta-pinene,[6],0 % wt/wt
same,total terpenes,[6],1.27 % wt/wt and 1.32 % wt/wt and 1.44 % wt/wt
same,Alpha-bisabolol,[7],0.109 % wt/wt
same,Alpha-humulene,[7],0.07612 % wt/wt
same,Beta-caryophyllene,[7],0.1899 % wt/wt
same,CBCA,[7],0.73
same,CBD,[7],0.155
same,CBDA,[7],14.5975
same,CBGA,[7],0.4775
same,Limonene,[7],0.1418 % wt/wt
same,THCA,[7],0.625
same,Total CBD,[7],12.96
same,Total CBG,[7],0.42
same,Total cannabinoids,[7],16.585
same,Total d9THC,[7],0.55
same,alpha-pinene,[7],0.01702 % wt/wt
same,beta-myrcene,[7],1.084 % wt/wt
same,beta-pinene,[7],0.02447 % wt/wt
same,total terpenes,[7],1.725 % wt/wt
same,Alpha-bisabolol,[8],0.1326 % wt/wt and 0.0981 % wt/wt and 0.1139 % wt/wt and 0.0915 % wt/wt
same,Alpha-humulene,[8],0.0912 % wt/wt and 0.0723 % wt/wt and 0.0736 % wt/wt and 0.0674 % wt/wt
same,Beta-caryophyllene,[8],0.2182 % wt/wt and 0.1794 % wt/wt and 0.192 % wt/wt and 0.1699 % wt/wt
same,CBCA,[8],0.71 and 0.73 and 0.72 and 0.76
same,CBD,[8],0.17 and 0.12 and 0.33 and 0
same,CBDA,[8],15.33 and 14.37 and 13.89 and 14.8
same,CBGA,[8],0.5 (2×) and 0.46 and 0.45
same,Limonene,[8],0.213 % wt/wt and 0.1272 % wt/wt and 0.113 % wt/wt and 0.1141 % wt/wt
same,THCA,[8],0.65 and 0.63 (2×) and 0.59
same,Total CBD,[8],13.61 and 12.73 and 12.52 and 12.98
same,Total CBG,[8],0.44 (2×) and 0.4 (2×)
same,Total cannabinoids,[8],17.36 and 16.31 and 15.98 and 16.69
same,Total d9THC,[8],0.57 and 0.55 and 0.52 and 0.56
same,alpha-pinene,[8],0.0398 % wt/wt and 0.0283 % wt/wt and 0 % wt/wt (2×)
same,beta-myrcene,[8],1.6091 % wt/wt and 0.9913 % wt/wt and 0.8332 % wt/wt and 0.9015 % wt/wt
same,beta-pinene,[8],0.0299 % wt/wt and 0.023 % wt/wt and 0.0257 % wt/wt and 0.0193 % wt/wt
same,total terpenes,[8],2.43 % wt/wt and 1.6 % wt/wt and 1.43 % wt/wt and 1.44 % wt/wt
same,total terpene content,application of 1 mM or 4.25 mM,increased
same,Aboveground fresh weight and dried weight compared to the control plants,at both 1 mM and 10 mM,significantly reduced
